The test system of data set [1] is C. parvum oocysts. Briefly: In vitro infectivity of oocysts in MDBK cells. Type of data set: cell-based, Cryptosporidium parvum. The procedure:
All CPA cocktails described in FIG. 2A were further tested for infectivity in the in vitro model of epithelial cell infection using MDBK cells. Twenty thousand cells were seeded into each well of a 96-well culturing plate (Falcon) and maintained for two days to reach confluence (defined at 4×10^4/well). Oocysts were prepared for infection by bleaching and incubation with CPA cocktail as described above. After removal of diluted CPA in excess PBS, the oocyst pellet was resuspended in 50 μL of 0.75% sodium taurocholate (Sigma) and incubated at 37° C. for 15 min to prompt excystation. Pre-excysted oocysts were then added onto confluent cell monolayers at MOI 1:3. After 24-h co-incubation of parasite with cell monolayer, cultures were washed with PBS to remove extracellular stages of parasite, permeabilized with 100% methanol for 10 min at room temperature and then washed again with PBS. After fixation, cells were blocked with 10% FBS for 30 min and then incubated with fluorescein-labeled Vicia villosa lectin (Vector Laboratories) at concentration […] for 30 min to visualize intracellular stages of the parasite. After the final wash with PBS, monolayers were inspected with a Nikon ECLIPSE® Ti-E microscope (Nikon Instruments Inc.). Four images were taken of each well at 200× magnification using a FITC filter at 100 ms exposure. The number of fluorescing infection foci was then counted by ImageJ 1.48v particle analyzer using the following settings: triangle threshold 15-255, size exclusion at 10-1,000 pixel^2 and circularity at 0.1-1.0. Results depicted in FIG. 2B are expressed as percent infectivity of the control oocysts, which were treated with PBS in place of CPA.
(§1) Bleached (20%) C. parvum oocysts at 1-2, 6 and 12 weeks of age were cryopreserved as described above using a two-step DMSO addition protocol, such that final concentration of 0.5 M trehalose/50% DMSO was achieved. […] Pre-freeze and post-freeze oocyst viability was measured by PI exclusion at 10 μg/mL using flow cytometry and by an in vitro infectivity assay. […]

The test system of data set [2] is C. parvum oocysts. In words: Oocyst viability by propidium iodide (PI) exclusion, flow cytometry. Type of data set: cell-based, Cryptosporidium parvum. As to conditions: for viability (PI exclusion): pre-freeze, 50% DMSO, 20% bleach condition. How it is done:
To increase the intracellular concentration of CPA, oocysts were bleached with various concentrations of bleach-5% or 20% and then incubated with CPA cocktails consisting of trehalose (Sigma) and DMSO (Sigma) at different concentrations. Briefly, bleached oocysts were first dehydrated in 1.6 M or 1 M trehalose solution for 10 min and then incubated for another 5-15 min with DMSO achieving its final concentration of 30% or 50% (ambient conditions were used throughout). The DMSO/trehalose cocktail was then diluted by incubation with excess PBS (at ratio 1:100) for 30 min at room temperature and removed by centrifugation (18,000×g, 2 min). Cytotoxicity attributable to the CPA cocktail was measured by inclusion of PI (Sigma) at 10 μg/mL using flow cytometry (ACCURI® C6, BD Life Sciences) and was normalized to its control in PBS for each condition.
In an effort to maximize the concentration of intracellular and extracellular CPA without compromising oocyst viability, oocysts were gradually exposed to higher concentrations of DMSO by two-step addition. Here, 6-week-old bleached oocysts (5% or 20%) were first dehydrated in 1.6 M trehalose for 10 min. DMSO was added to achieve 0.8 M trehalose/30% DMSO solution and incubated for 5 min. The second addition of DMSO led to a final concentration of 0.5 M trehalose/50% DMSO and was incubated for 1 min. CPA cocktail was then diluted as described above. Cytotoxicity attributable to CPA cocktail was measured by inclusion of PI and was normalized to the untreated oocyst control in PBS.
as §1
For evaluation of cryopreservation in insemination straws and cryovials, pre-freeze and post-freeze viability was measured only by PI exclusion as described above.
Background: A flow cytometer gives signals particle by particle.

The test system of data set [3] is IFN-γ knockout mice. In words: In vivo infectivity of cryopreserved oocysts. The procedure:
C. parvum oocysts at 2, 6 and 12 weeks of age were bleached (20%) and cryopreserved in the vitrification cassettes as described above using a two-step DMSO addition protocol with final concentration of 0.5 M trehalose/50% DMSO. Infectivity of cryopreserved oocysts was evaluated in 8-week-old female IFN-γ knockout mice bred under pathogen-free conditions (Jackson Laboratory, Bar Harbor, ME, USA). All mice experiments were conducted in an AAALAC accredited institution in compliance with the study protocol No. G2017-107 approved by the Tufts University Institutional Animal Care and Use Committee in accordance with the Guide for the Care and Use of Laboratory Animals (National Research Council). Mice were randomly assigned into groups of three by a blinded animal caretaker, however the investigators were not blinded during this experiment.
The animal care, inoculation and monitoring procedures were performed as described elsewhere (Jaskiewicz et al., Cryopreservation of infectious Cryptosporidium parvum oocysts. Nat. Commun. 9, 2883 (2018)), with modifications. Mice were immunosuppressed throughout the course of the experiment by administration of dexamethasone in drinking water at concentration 10 mg/L. Three days after immunosuppressive treatment started, each mouse received 30,000 PI^− cryopreserved oocysts in PBS suspension by oral gavage. […] Mice negative for signs of infection were monitored until 11 DPI. Intensity of fecal shedding was measured daily by inspection of the acid-fast stained fecal smear slides, prepared from a single fecal pellet of approximately equal size, for presence of oocysts in 30 fields (1000×).
The animal experiments which produced negative cryopreservation outcome were performed as described above with exception of few procedural details. A summary table describing the different cryopreservation methods evaluated and the corresponding outcome can be found in Table 1. […]

The mark [4] stands for this setting: 30% DMSO 5 min then 50% DMSO 1 min, compared with one-step at same overall concentration.

The results in this text go back to patent publication US12692471B2, “High aspect ratio devices and methods for vitrification of biological samples by rapid cooling” (The General Hospital Corporation, priority 2020, dated 2026).

As for `C[S+](C)[O-]` [DMSO, dimethyl sulfoxide], the “pre-freeze infectivity in vitro, two-step vs one-step DMSO addition” value in data set [1] (setting [4]) is “significantly increased”. In data set [1] (pre-freeze, 50% DMSO, 5 min incubation, 20% bleach condition, percent of control oocysts in PBS), this compound showed an in vitro infectivity of 38.7±17.0%. Also, the “infectivity (in vitro)” value in data set [1] (pre-freeze, 50% DMSO, after 15 min or longer, 20% bleach condition) came out at 6.4±1.9%. Also, the “pre-freeze viability, two-step vs one-step DMSO addition” value in data set [2] (setting [4]) was “significantly increased”. Also, the “viability (PI exclusion)” value in data set [2] (5 min incubation) was 59.4±2.3%; in data set [2] (after 15 min or longer), 17.5±5.0%. In addition, the “Infectivity in animals after thawing” value in data set [3] (Rectangular capillary, 2 weeks oocysts, trehalose 1.6M/0.8M, One-step 50% DMSO, 5 min, dose 10,000) is “No”; in data set [3] (Vitrification cassette, 2-12 weeks oocysts, trehalose 1.6M/0.5M, Two-step 30% DMSO/50% DMSO, 5 min/1 min, dose 30,000), “Yes”; in data set [3] (Vitrification cassette, 6 weeks oocysts, trehalose 1.6M/0.8M, One-step 50% DMSO, 5 min, dose 10,000) it was “No”.
